Like-named read-outs stand apart in the source and are kept apart here.
How the values were obtained:
recombinant HDAC8 = biological target: T1, recombinant HDAC8 (Homo sapiens, UniProt Q9BY41); experiment: Histone deacetylase 8 inhibitory assay; type: biochemical; conditions: 10 μM
T1 sequence (Q9BY41 1-377): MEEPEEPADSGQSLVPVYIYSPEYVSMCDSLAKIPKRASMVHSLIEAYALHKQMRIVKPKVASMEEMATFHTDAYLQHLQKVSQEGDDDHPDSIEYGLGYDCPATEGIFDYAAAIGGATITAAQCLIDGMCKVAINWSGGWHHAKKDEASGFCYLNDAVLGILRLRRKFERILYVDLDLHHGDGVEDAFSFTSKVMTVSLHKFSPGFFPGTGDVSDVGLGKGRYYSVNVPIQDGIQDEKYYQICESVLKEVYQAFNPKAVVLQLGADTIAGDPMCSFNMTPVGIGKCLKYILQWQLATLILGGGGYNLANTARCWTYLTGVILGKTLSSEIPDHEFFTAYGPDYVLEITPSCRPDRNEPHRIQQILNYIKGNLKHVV

[1] = system: tested cancer cell lines (HepG2, Hep2, HCT116, RD, MCF7); experiment: In vitro cytotoxicity, summary statements over tested cancer cell lines; type: cell-based, human
bovine brain tubulin = experiment: Tubulin polymerization assay; type: biochemical; conditions: 10 μM
[2] = Homo sapiens, RD, read-out: IC50 against cancer cell lines

| Percentage inhibition HDAC8 activity (recombinant HDAC8) | Structure (SMILES) | IC50 [1, 2] [µM] | also measured |
| --- | --- | --- | --- |
| < 30% | O=Cc1ccc(CO)o1 [5-(hydroxymethyl)-2-furaldehyde] |  |  |
| stimulated HDAC8 activity | Nc1ncnc2c1ncn2[C@@H]1O[C@H](CO)[C@@H](O)[C@H]1O [Adenosine, adenosine] |  |  |
| stimulated HDAC8 activity | CC[C@H](CC[C@@H](C)[C@H]1CC[C@H]2[C@@H]3CC=C4C[C@@H](O[C@@H]5O[C@H](CO)[C@@H](O)[C@H](O)[C@H]5O)CC[C@]4(C)[C@H]3CC[C@]12C)C(C)C [β-Sitosterol-3-O-glucoside, β-sitosterol-3-O-glucoside] |  |  |
|  | O=c1ccc2ccc3occc3c2o1 [Angelicin, angelicin] | < 20 | SI against cancer cell lines ([1]; tested cancer cell lines (extract and quercetin: except RD cells)): > 7 |
|  | O=c1cc(-c2ccc(O)c(O)c2)oc2cc(O)cc(O)c12 [Luteolin, luteolin] | < 20 |  |
|  | CC(=O)OC1c2c(ccc3ccc(=O)oc23)OC(C)(C)C1OC(=O)C(C)(O)C(C)O (stereo not shown) [Hyuganin E, hyuganin E] |  | SI (good selectivity), Hep2, HCT116, and MCF7 ([1]; Hep2, HCT116, and MCF7): > 3; IC50 ([1]; read-out: IC50 values against Hep2, HCT116, and MCF7, Hep2, HCT116, and MCF7): < 25 µM |
|  | O=C(/C=C/c1ccc(O)c(O)c1)O[C@@H]1C[C@](O)(C(=O)O)C[C@@H](O)[C@H]1O [Chlorogenic acid, chlorogenic acid] |  | Percentage inhibition tubulin polymerization (bovine brain tubulin): moderate inhibition |
|  | O=c1c(O)c(-c2ccc(O)c(O)c2)oc2cc(O)cc(O)c12 [Quercetin, quercetin] | < 20 |  |

Reference: PMC4787089 (Pharmacognosy Magazine, 2015)
